Assays:
[1] = tested on: warm-blooded animals; test: toxicity / tolerance (acute toxicity tests and prolonged administration); details: in vivo
[2] = tested on: carragheenin paw edema; test: carragheenin paw edema test; format: in vivo, rat; details: rats; for % INHIBITION of edema / EDEMA (results expressed in grams of mercury displaced): 3 h after carragheenin
Description: A. Winter, et al., Proc. Soc. Exp. Biol., lll, 544 (1962). […] A. Winter in "Non-Steroidal Anti-inflammatory Drugs", S. Garattine and M. N. G. Dukes, Eds., Excerpta Medica International Congress, Ser. No. 82, 1965, p. 190.
More particularly exemplified a substantial effect for γ-oxo-2-dibenzofuranbutyric acid is demonstrable at oral doses of 200 mg/kg or less in this paw edema test. In this test rats are treated with the test compound one hour before a 1% suspension of carragheenin in saline is injected into the subplantar area of the hind paw of the rat. Results are obtained by measuring the increase in paw volume caused by the resulting edema three hours later by plethysmography in mercury and expressing values as grams of mercury displaced. Control animals receive the vehicle only. The results are expressed as percent inhibition in edematous swelling calculated as [formula] where Δ control is the increase in volume measured in untreated controls and Δ treated is the increase in volume found in the treated animals.
The following table lists the results obtained for both γ-oxo-2-dibenzofuranbutyric acid (l) and its isomer ll.

[3] = solubility in water; format: physicochemical
[4] = tested on: gastrointestinal ulcers; test: ulcerogenic activity in a modification of a known method; format: in vivo; details: therapeutic dose levels
[5] = antipyretic activity (standard pharmacologic test); details: in vivo
From the text: (§1) The useful antiinflammatory, analgesic and antipyretic activities of the product of this invention is demonstrable in standard pharmacologic tests, for example, the test described by R. A. Turner in "Screening Method in Pharmacology", Academic Press, New York and London, 1965, pp. 152-163, pp. 100-117 and pp. 298-299, respectively.

[6] = analgesic activity (standard pharmacologic test); details: in vivo
From the text: as §1

[7] = tested on: inflammatory conditions; test: antiinflammatory activity (pharmacologic testing); format: in vivo; details: for antiinflammatory properties / activity: in vivo

SMILES: O=C(O)CCC(=O)c1ccc2oc3ccccc3c2c1 [γ-oxo-2-dibenzofuranbutyric acid]
- side effects [1]: lack of side effects
- therapeutic index [1]: highly favorable therapeutic index
- tolerance [1]: exceptionally well tolerated
- toxicity [1]: low order of toxicity
- % INHIBITION of edema ([2]; Experiment A, 50 mg/kg, oral): 37%
- EDEMA (results expressed in grams of mercury displaced) ([2]; Experiment A, 50 mg/kg, oral): 7.7 ± 0.88 grams of mercury displaced
- % INHIBITION of edema ([2]; Experiment A, 100 mg/kg, oral): 54%
- EDEMA (results expressed in grams of mercury displaced) ([2]; Experiment A, 100 mg/kg, oral): 5.7 ± 0.42 grams of mercury displaced
- % INHIBITION of edema ([2]; Experiment A, 200 mg/kg, oral): 78%
- EDEMA (results expressed in grams of mercury displaced) ([2]; Experiment A, 200 mg/kg, oral): 2.7 ± 0.36 grams of mercury displaced
- % INHIBITION of edema ([2]; Experiment C, 100 mg/kg): 60%
- EDEMA (results expressed in grams of mercury displaced) ([2]; Experiment C, 100 mg/kg): 4.8 ± 0.46 grams of mercury displaced
- minimal effective dose ([2]; Rattus norvegicus, oral, read-out: oral dose at which a substantial effect is demonstrable): ≤ 200 mg/kg
- activity compared with isomer ll (Student's t test) ([2]; paw edema test): significantly more active than the isomer ll
- solubility in water [3]: only limited solubility in water
- formation of gastrointestinal ulcers [4]: does not cause formation of gastrointestinal ulcers
- antipyretic activity [5]: possesses analgesic and antipyretic activity
- analgesic activity [6]: possesses analgesic and antipyretic activity
- antiinflammatory activity compared with isomer ll ([7]; acid l versus isomer ll): somewhat more active
- onset of action compared with isomer ll ([7]; acid l versus isomer ll): quicker onset of action
- antiinflammatory properties / activity [7]: important antiinflammatory properties
- antiinflammatory properties / activity ([7]; listed as acid l): have antiinflammatory activity

SMILES: O=C(O)CCC(=O)c1ccc2c(c1)oc1ccccc12 [γ-oxo-3-dibenzofuranbutyric acid]
- % INHIBITION of edema ([2]; Experiment B, 100 mg/kg): 5%
- EDEMA (results expressed in grams of mercury displaced) ([2]; Experiment B, 100 mg/kg): 13.6 ± 1.38 grams of mercury displaced
- % INHIBITION of edema ([2]; Experiment B, 200 mg/kg): 34%
- EDEMA (results expressed in grams of mercury displaced) ([2]; Experiment B, 200 mg/kg): 9.5 ± 1.11 grams of mercury displaced
- % INHIBITION of edema ([2]; Experiment B, 400 mg/kg): 28%
- EDEMA (results expressed in grams of mercury displaced) ([2]; Experiment B, 400 mg/kg): 10.3 ± 1.05 grams of mercury displaced
- % INHIBITION of edema ([2]; Experiment C, 100 mg/kg): 18%
- EDEMA (results expressed in grams of mercury displaced) ([2]; Experiment C, 100 mg/kg): 9.9 ± 0.67 grams of mercury displaced
- antiinflammatory properties / activity [7]: have antiinflammatory activity

— US3985774A, “Purification of γ-oxo-2-dibenzofuranbutyric acid” (American Home Products Corporation, priority 1972, dated 1976)
